Data as given in US12552766B2, “Pesticidally active azole amide compounds” (SYNGENTA CROP PROTECTION AG, priority 2019, dated 2026).

What was measured:
Assay type in all cases: in vivo
[1] = tested on: Diabrotica Balteata (Corn Root Worm); test: Example B1: Diabrotica balteata, spray on maize sprouts; details: 96 h, application rate of 200 ppm, L2 larvae, 4 days after infestation, read-out: control in at least one of the two categories (mortality or growth inhibition)
Method: Maize sprouts placed onto an agar layer in 24-well microtiter plates were treated with aqueous test solutions prepared from 10′000 ppm DMSO stock solutions by spraying. After drying, the plates were infested with L2 larvae (6 to 10 per well). The samples were assessed for mortality and growth inhibition in comparison to untreated samples 4 days after infestation.

[2] = tested on: Plutella xylostella (Diamond Back Moth); test: Example B5: Plutella xylostella, artificial diet, 24-well; details: 192 h, application rate of 200 ppm, eggs, 8 days after infestation, read-out: control in at least one of the two categories (mortality or growth inhibition)
Method: 24-well microtiter plates with artificial diet were treated with aqueous test solutions prepared from 10′000 ppm DMSO stock solutions by pipetting. After drying, Plutella eggs were pipetted through a plastic stencil onto a gel blotting paper and the plate was closed with it. The samples were assessed for mortality and growth inhibition in comparison to untreated samples 8 days after infestation.

[3] = tested on: Chilo suppressalis (Striped Rice Stemborer); test: Example B4: Chilo suppressalis, artificial diet; details: 144 h, application rate of 200 ppm, L2 larvae, 6 days after infestation, read-out: control in at least one of the three categories (mortality, anti-feedant effect, or growth inhibition)
Method: 24-well microtiter plates with artificial diet were treated with aqueous test solutions prepared from 10′000 ppm DMSO stock solutions by pipetting. After drying, the plates were infested with L2 larvae (6-8 per well). The samples were assessed for mortality, anti-feeding effect, and growth inhibition in comparison to untreated samples 6 days after infestation. Control of Chilo suppressalis by a test sample is given when at least one of the categories mortality, anti-feedant effect, and growth inhibition is higher than the untreated sample.

[4] = tested on: Spodoptera littoralis (Egyptian Cotton Leaf Worm); test: Example B9: Spodoptera littoralis, spray on cotton leaf discs; details: foliar, 72 h, application rate of 200 ppm, L1 larvae, 3 days after infestation, read-out: control in at least one of the three categories (mortality, anti-feedant effect, or growth inhibition)
Method: Cotton leaf discs were placed onto agar in 24-well microtiter plates and sprayed with aqueous test solutions prepared from 10′000 ppm DMSO stock solutions. After drying the leaf discs were infested with five L1 larvae. The samples were assessed for mortality, anti-feeding effect, and growth inhibition in comparison to untreated samples 3 days after infestation. Control of Spodoptera littoralis by a test sample is given when at least one of the categories mortality, anti-feedant effect, and growth inhibition is higher than the untreated sample.

CC(NC(=O)c1cc(C(F)(F)F)cc(C(F)(F)F)c1)c1nc(Br)nn1-c1ncc(OC(F)F)cn1 (stereo not shown) [Compound P2, N-[1-[5-bromo-2-[5-(difluoromethoxy)pyrimidin-2-yl]-1,2,4-triazol-3-yl]ethyl]-3,5-bis(trifluoromethyl) benzamide]
≥ 80%: percent control (mortality or growth inhibition) at 200 ppm [1] | percent control (mortality or growth inhibition) at 200 ppm [2] | percent control (mortality, anti-feedant effect or growth inhibition) at 200 ppm [3] | percent control (mortality, anti-feedant effect or growth inhibition) at 200 ppm [4]

CC(NC(=O)c1cc(SC(F)(F)F)cc(C(F)(F)F)c1)c1nc(Br)nn1-c1ccc(C#N)cn1 (stereo not shown) [Compound P5, N-[1-[5-bromo-2-(5-cyano-2-pyridyl)-1,2,4-triazol-3-yl]ethyl]-3-(trifluoromethyl)-5-(trifluoromethylsulfanyl)benzamide]
≥ 80%: percent control (mortality or growth inhibition) at 200 ppm [1] | percent control (mortality or growth inhibition) at 200 ppm [2] | percent control (mortality, anti-feedant effect or growth inhibition) at 200 ppm [3] | percent control (mortality, anti-feedant effect or growth inhibition) at 200 ppm [4]

CC(NC(=O)c1cc(C(F)(F)F)cc(C(F)(F)F)c1)c1nc(Br)nn1-c1ccc(OC(F)F)cn1 (stereo not shown) [Compound P6, N-[1-[5-bromo-2-[5-(difluoromethoxy)-2-pyridyl]-1,2,4-triazol-3-yl]ethyl]-3,5-bis(trifluoromethyl) benzamide]
≥ 80%: percent control (mortality or growth inhibition) at 200 ppm [1] | percent control (mortality or growth inhibition) at 200 ppm [2] | percent control (mortality, anti-feedant effect or growth inhibition) at 200 ppm [3] | percent control (mortality, anti-feedant effect or growth inhibition) at 200 ppm [4]

CC(NC(=O)c1cc(OC(F)F)cc(C(F)(F)F)c1)c1nc(Br)nn1-c1ccc(OC(F)F)cn1 (stereo not shown) [Compound P7, N-[1-[5-bromo-2-[5-(difluoromethoxy)-2-pyridyl]-1,2,4-triazol-3-yl]ethyl]-3-(difluoromethoxy)-5-(trifluoromethyl) benzamide]
≥ 80%: percent control (mortality or growth inhibition) at 200 ppm [1] | percent control (mortality or growth inhibition) at 200 ppm [2] | percent control (mortality, anti-feedant effect or growth inhibition) at 200 ppm [3] | percent control (mortality, anti-feedant effect or growth inhibition) at 200 ppm [4]

CC(NC(=O)c1cc(OC(F)(F)F)cc(C(F)(F)F)c1)c1nc(Br)nn1-c1ccc(C#N)cn1 (stereo not shown) [Compound P9, N-[1-[5-bromo-2-(5-cyano-2-pyridyl)-1,2,4-triazol-3-yl]ethyl]-3-(trifluoromethoxy)-5-(trifluoromethyl)benzamide]
≥ 80%: percent control (mortality or growth inhibition) at 200 ppm [1] | percent control (mortality or growth inhibition) at 200 ppm [2] | percent control (mortality, anti-feedant effect or growth inhibition) at 200 ppm [3] | percent control (mortality, anti-feedant effect or growth inhibition) at 200 ppm [4]

CC(NC(=O)c1cc(OC(F)F)cc(C(F)(F)F)c1)c1nc(Br)nn1-c1ccc(C#N)cn1 (stereo not shown) [Compound P10, N-[1-[5-bromo-2-(5-cyano-2-pyridyl)-1,2,4-triazol-3-yl]ethyl]-3-(difluoromethoxy)-5-(trifluoromethyl)benzamide]
≥ 80%: percent control (mortality or growth inhibition) at 200 ppm [1] | percent control (mortality or growth inhibition) at 200 ppm [2] | percent control (mortality, anti-feedant effect or growth inhibition) at 200 ppm [3] | percent control (mortality, anti-feedant effect or growth inhibition) at 200 ppm [4]

CC(NC(=O)c1cc(C(F)(F)F)cc(C(F)(F)F)c1)c1nc(Br)nn1-c1ccc(C#N)cn1 (stereo not shown) [Compound P11, N-[1-[5-bromo-2-(5-cyano-2-pyridyl)-1,2,4-triazol-3-yl]ethyl]-3,5-bis(trifluoromethyl)benzamide]
≥ 80%: percent control (mortality or growth inhibition) at 200 ppm [1] | percent control (mortality or growth inhibition) at 200 ppm [2] | percent control (mortality, anti-feedant effect or growth inhibition) at 200 ppm [3] | percent control (mortality, anti-feedant effect or growth inhibition) at 200 ppm [4]

CC(NC(=O)c1cc(OCC(F)(F)F)cc(C(F)(F)F)c1)c1nc(Br)nn1-c1ccc(OC(F)F)cn1 (stereo not shown) [Compound P14, N-[1-[5-bromo-2-[5-(difluoromethoxy)-2-pyridyl]-1,2,4-triazol-3-yl]ethyl]-3-(2,2,2-trifluoroethoxy)-5-(trifluoromethyl) benzamide]
≥ 80%: percent control (mortality or growth inhibition) at 200 ppm [1] | percent control (mortality or growth inhibition) at 200 ppm [2] | percent control (mortality, anti-feedant effect or growth inhibition) at 200 ppm [3] | percent control (mortality, anti-feedant effect or growth inhibition) at 200 ppm [4]

CC(NC(=O)c1cc(OC(F)(F)F)cc(C(F)(F)F)c1)c1nc(Br)nn1-c1ncc(OCC(F)F)cn1 (stereo not shown) [Compound P22, N-[1-[5-bromo-2-[5-(2,2-difluoroethoxy)pyrimidin-2-yl]-1,2,4-triazol-3-yl]ethyl]-3-(trifluoromethoxy)-5-(trifluoromethyl) benzamide]
≥ 80%: percent control (mortality or growth inhibition) at 200 ppm [1] | percent control (mortality or growth inhibition) at 200 ppm [2] | percent control (mortality, anti-feedant effect or growth inhibition) at 200 ppm [3] | percent control (mortality, anti-feedant effect or growth inhibition) at 200 ppm [4]

CC(NC(=O)c1cc(SC(F)(F)F)cc(C(F)(F)F)c1)c1nc(Br)nn1-c1ncc(OCC(F)F)cn1 (stereo not shown) [Compound P24, N-[1-[5-bromo-2-[5-(2,2-difluoroethoxy)pyrimidin-2-yl]-1,2,4-triazol-3-yl]ethyl]-3-(trifluoromethyl)-5-(trifluoromethyl-sulfanyl)benzamide]
≥ 80%: percent control (mortality or growth inhibition) at 200 ppm [1] | percent control (mortality or growth inhibition) at 200 ppm [2] | percent control (mortality, anti-feedant effect or growth inhibition) at 200 ppm [3] | percent control (mortality, anti-feedant effect or growth inhibition) at 200 ppm [4]

CC(NC(=O)c1cc(C(F)(F)F)cc(C(F)(F)F)c1)c1nc(Br)nn1-c1ncc(OCC(F)F)cn1 (stereo not shown) [Compound P25, N-[1-[5-bromo-2-[5-(2,2-difluoroethoxy)pyrimidin-2-yl]-1,2,4-triazol-3-yl]ethyl]-3,5-bis(trifluoromethyl) benzamide]
≥ 80%: percent control (mortality or growth inhibition) at 200 ppm [1] | percent control (mortality or growth inhibition) at 200 ppm [2] | percent control (mortality, anti-feedant effect or growth inhibition) at 200 ppm [3] | percent control (mortality, anti-feedant effect or growth inhibition) at 200 ppm [4]

CC(NC(=O)c1cc(C(F)(F)F)cc(C(F)(F)F)c1)c1nc(-c2ncccn2)nn1-c1ccc(C#N)cn1 (stereo not shown) [Compound P32, N-[1-[2-(5-cyano-2-pyridyl)-5-pyrimidin-2-yl-1,2,4-triazol-3-yl]ethyl]-3,5-bis(trifluoromethyl) benzamide]
≥ 80%: percent control (mortality or growth inhibition) at 200 ppm [1] | percent control (mortality or growth inhibition) at 200 ppm [2] | percent control (mortality, anti-feedant effect or growth inhibition) at 200 ppm [3] | percent control (mortality, anti-feedant effect or growth inhibition) at 200 ppm [4]

CC(NC(=O)c1cc(OCC(F)F)cc(C(F)(F)F)c1)c1nc(Br)nn1-c1ccc(C#N)cn1 (stereo not shown) [Compound P33, N-[1-[5-bromo-2-(5-cyano-2-pyridyl)-1,2,4-triazol-3-yl]ethyl]-3-(2,2-difluoroethoxy)-5-(trifluoromethyl)benzamide]
≥ 80%: percent control (mortality or growth inhibition) at 200 ppm [2] | percent control (mortality, anti-feedant effect or growth inhibition) at 200 ppm [3] | percent control (mortality, anti-feedant effect or growth inhibition) at 200 ppm [4]

CC(NC(=O)c1cc(Cl)cc(C(F)(F)F)c1)c1nc(Br)nn1-c1ccc(OCC(F)(F)F)cn1 (stereo not shown) [Compound P37, N-[1-[5-bromo-2-[5-(2,2,2-trifluoroethoxy)-2-pyridyl]-1,2,4-triazol-3-yl]ethyl]-3-chloro-5-(trifluoromethyl) benzamide]
≥ 80%: percent control (mortality or growth inhibition) at 200 ppm [2] | percent control (mortality, anti-feedant effect or growth inhibition) at 200 ppm [3] | percent control (mortality, anti-feedant effect or growth inhibition) at 200 ppm [4]

CC(NC(=O)c1cc(OCC(F)(F)F)cc(C(F)(F)F)c1)c1nc(Br)nn1-c1ccc(OCC(F)(F)F)cn1 (stereo not shown) [Compound P39, N-[1-[5-bromo-2-[5-(2,2,2-trifluoroethoxy)-2-pyridyl]-1,2,4-triazol-3-yl]ethyl]-3-(2,2,2-trifluoroethoxy)-5-(trifluoromethyl) benzamide]
≥ 80%: percent control (mortality or growth inhibition) at 200 ppm [2] | percent control (mortality, anti-feedant effect or growth inhibition) at 200 ppm [4]

CC(NC(=O)c1cc(C(F)(F)F)cc(C(F)(F)F)c1)c1nc(C#N)nn1-c1ccc(C#N)cn1 (stereo not shown) [Compound P48, N-[1-[5-cyano-2-(5-cyano-2-pyridyl)-1,2,4-triazol-3-yl]ethyl]-3,5-bis(trifluoromethyl) benzamide]
≥ 80%: percent control (mortality or growth inhibition) at 200 ppm [1] | percent control (mortality, anti-feedant effect or growth inhibition) at 200 ppm [3] | percent control (mortality, anti-feedant effect or growth inhibition) at 200 ppm [4]

CC(NC(=O)c1cc(Br)cc(C(F)(F)F)c1)c1nc(Br)nn1-c1ccc(OCC(F)(F)F)cn1 (stereo not shown) [Compound P50, 3-bromo-N-[1-[5-bromo-2-[5-(2,2,2-trifluoroethoxy)-2-pyridyl]-1,2,4-triazol-3-yl]ethyl]-5-(trifluoromethyl) benzamide]
≥ 80%: percent control (mortality or growth inhibition) at 200 ppm [2] | percent control (mortality, anti-feedant effect or growth inhibition) at 200 ppm [3]
